Reference: ChEMBL document CHEMBL4680174, “Synthesis, biological evaluation and in silico modeling of novel integrase strand transfer inhibitors (INSTIs)” (Eur J Med Chem, 2020)
In brackets after ≈: the same amount, converted by molar mass.

Columns and labels:
Cytochrome P450 3A4 = Cytochrome P450 3A4 (Homo sapiens, UniProt P08684); assay: Inhibition of CYP3A4 in human liver microsomes using midazolam as substrate incubated for 30 mins by LC-MS/MS analysis; format: ADME
[1] = Stability in rat plasma assessed as parent compound remaining at 1 uM up to 24 hrs by LC-MS/MS analysis; format: ADME, cell-free; conditions: read-out: Stabilty
[2] = Protein binding in human plasma at 1 uM after 4 hrs by LC-MS/MS analysis; format: ADME, cell-free; conditions: read-out: PPB
[3] = Drug concentration in Sprague-Dawley rat at 1 mg/kg, iv after 8 hrs by LC-MS/MS analysis; format: ADME, organism-based; conditions: in vivo, read-out: Drug uptake
[4] = Cytotoxicity against human CEM-SS cells assessed as reduction in cell viability by XTT assay; format: cell-based
[5] = Drug concentration in Sprague-Dawley rat at 1 mg/kg, iv after 24 hrs by LC-MS/MS analysis; format: ADME, organism-based; conditions: in vivo, read-out: Drug uptake
[6] = Stability in rat liver microsomes assessed as parent compound remaining at 1 uM up to 24 hrs by LC-MS/MS analysis; format: ADME, Microsome; conditions: read-out: Stabilty
[7] = Stability in human plasma assessed as parent compound remaining at 1 uM up to 24 hrs by LC-MS/MS analysis; format: ADME, cell-free; conditions: read-out: Stabilty
[8] = Thermodynamic solubility of compound in plON buffer at 2 mg after 24 hrs; format: physicochemical; conditions: read-out: Therm_solubility
[9] = Tmax in Sprague-Dawley rat at 5 mg/kg, po up to 24 hrs by LC-MS/MS analysis; format: ADME, organism-based; conditions: in vivo
[10] = Protein binding in rat plasma at 1 uM after 4 hrs by LC-MS/MS analysis; format: ADME, cell-free; conditions: read-out: PPB (converted)
Cytochrome P450 2C9 = Cytochrome P450 2C9 (Homo sapiens, UniProt P11712); assay: Inhibition of CYP2C9 in human liver microsomes using tolbutamide as substrate incubated for 30 mins by LC-MS/MS analysis; format: ADME
Cytochrome P450 2C9, sequence (P11712 whole entry): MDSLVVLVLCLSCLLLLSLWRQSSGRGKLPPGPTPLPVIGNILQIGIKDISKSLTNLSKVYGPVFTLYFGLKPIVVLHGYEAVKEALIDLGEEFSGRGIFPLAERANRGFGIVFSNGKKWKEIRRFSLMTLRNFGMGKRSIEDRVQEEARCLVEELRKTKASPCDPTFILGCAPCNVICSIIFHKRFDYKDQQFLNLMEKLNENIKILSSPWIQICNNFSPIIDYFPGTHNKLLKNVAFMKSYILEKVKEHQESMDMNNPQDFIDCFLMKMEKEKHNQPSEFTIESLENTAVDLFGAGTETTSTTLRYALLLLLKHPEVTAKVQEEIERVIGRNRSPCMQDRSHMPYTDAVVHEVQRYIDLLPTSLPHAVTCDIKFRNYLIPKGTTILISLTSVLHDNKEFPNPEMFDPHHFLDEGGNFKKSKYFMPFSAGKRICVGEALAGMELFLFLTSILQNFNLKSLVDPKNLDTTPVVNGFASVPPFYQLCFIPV

Cytochrome P450 1A2 = target: T1, Cytochrome P450 1A2 (Homo sapiens, UniProt P05177); assay: Inhibition of CYP1A2 in human liver microsomes using phenacetin as substrate incubated for 30 mins by LC-MS/MS analysis; format: ADME
T1 sequence (P05177 whole entry): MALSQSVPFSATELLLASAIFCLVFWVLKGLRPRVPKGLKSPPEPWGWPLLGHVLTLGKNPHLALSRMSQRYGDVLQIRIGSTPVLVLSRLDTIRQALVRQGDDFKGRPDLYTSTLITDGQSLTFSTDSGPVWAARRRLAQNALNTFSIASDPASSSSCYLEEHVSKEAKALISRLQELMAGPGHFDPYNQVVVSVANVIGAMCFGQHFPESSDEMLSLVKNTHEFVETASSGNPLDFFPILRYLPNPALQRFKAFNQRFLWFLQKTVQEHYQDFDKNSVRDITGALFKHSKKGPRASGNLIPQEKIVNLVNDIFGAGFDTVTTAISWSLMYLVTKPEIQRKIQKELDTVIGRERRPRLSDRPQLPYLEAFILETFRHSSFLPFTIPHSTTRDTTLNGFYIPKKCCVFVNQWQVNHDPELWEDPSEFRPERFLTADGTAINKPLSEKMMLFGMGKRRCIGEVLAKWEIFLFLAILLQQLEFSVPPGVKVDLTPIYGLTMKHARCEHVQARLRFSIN

[11] = system: Human immunodeficiency virus 1; assay: Antiviral activity against HIV1 3B infected in human CEM-SS cells assessed as reduction in cytopathic effect after 4 days; format: functional, organism-based; conditions: cem-ss
[12] = Stability in human liver microsomes assessed as parent compound remaining at 1 uM up to 24 hrs by LC-MS/MS analysis; format: ADME, Microsome; conditions: read-out: Stabilty
[13] = Drug concentration in Sprague-Dawley rat at 5 mg/kg, po after 24 hrs by LC-MS/MS analysis; format: ADME, organism-based; conditions: in vivo, read-out: Drug uptake
[14] = Oral bioavailability in Sprague-Dawley rat at 5 mg/kg up to 24 hrs by LC-MS/MS analysis; format: ADME, organism-based; conditions: in vivo
[15] = Thermodynamic solubility of compound in water at 2 mg after 24 hrs; format: physicochemical; conditions: read-out: Therm_solubility
[16] = Tmax in Sprague-Dawley rat at 1 mg/kg, iv up to 24 hrs by LC-MS/MS analysis; format: ADME, organism-based; conditions: in vivo
[17] = Selectivity index, ratio of CC50 for human CEM-SS cells to EC50 for Antiviral activity against HIV1 3B infected in human CEM-SS cells; format: toxicity, cell-based
[18] = Drug concentration in Sprague-Dawley rat at 5 mg/kg, po after 8 hrs by LC-MS/MS analysis; format: ADME, organism-based; conditions: in vivo, read-out: Drug uptake
Cytochrome P450 2C8 = target: T2, Cytochrome P450 2C8 (Homo sapiens, UniProt P10632); assay: Inhibition of CYP2C8 in human liver microsomes using amodiaquine as substrate incubated for 30 mins by LC-MS/MS analysis; format: ADME
T2 sequence (P10632 whole entry): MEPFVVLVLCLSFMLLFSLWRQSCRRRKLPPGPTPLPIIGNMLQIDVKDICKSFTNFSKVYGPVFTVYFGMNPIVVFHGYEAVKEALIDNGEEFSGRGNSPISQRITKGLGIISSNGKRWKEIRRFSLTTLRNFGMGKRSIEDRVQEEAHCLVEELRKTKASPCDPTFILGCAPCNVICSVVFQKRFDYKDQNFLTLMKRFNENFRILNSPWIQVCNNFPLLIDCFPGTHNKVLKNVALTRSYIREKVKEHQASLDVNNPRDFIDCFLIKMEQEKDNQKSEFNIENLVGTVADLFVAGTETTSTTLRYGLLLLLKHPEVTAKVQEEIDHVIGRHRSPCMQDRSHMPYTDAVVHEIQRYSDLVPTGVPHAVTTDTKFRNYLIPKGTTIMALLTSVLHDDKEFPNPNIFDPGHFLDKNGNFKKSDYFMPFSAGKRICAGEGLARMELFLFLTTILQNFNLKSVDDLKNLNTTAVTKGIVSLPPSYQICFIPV

[19] = Elimination rate constant Sprague-Dawley rat at 5 mg/kg, po up to 24 hrs by LC-MS/MS analysis; format: ADME, organism-based; conditions: in vivo
Cytochrome P450 2C19 = Cytochrome P450 2C19 (Homo sapiens, UniProt P33261); assay: Inhibition of CYP2C19 in human liver microsomes using S-mephenytoin as substrate incubated for 30 mins by LC-MS/MS analysis; format: ADME
Cytochrome P450 2C19, sequence (P33261 whole entry): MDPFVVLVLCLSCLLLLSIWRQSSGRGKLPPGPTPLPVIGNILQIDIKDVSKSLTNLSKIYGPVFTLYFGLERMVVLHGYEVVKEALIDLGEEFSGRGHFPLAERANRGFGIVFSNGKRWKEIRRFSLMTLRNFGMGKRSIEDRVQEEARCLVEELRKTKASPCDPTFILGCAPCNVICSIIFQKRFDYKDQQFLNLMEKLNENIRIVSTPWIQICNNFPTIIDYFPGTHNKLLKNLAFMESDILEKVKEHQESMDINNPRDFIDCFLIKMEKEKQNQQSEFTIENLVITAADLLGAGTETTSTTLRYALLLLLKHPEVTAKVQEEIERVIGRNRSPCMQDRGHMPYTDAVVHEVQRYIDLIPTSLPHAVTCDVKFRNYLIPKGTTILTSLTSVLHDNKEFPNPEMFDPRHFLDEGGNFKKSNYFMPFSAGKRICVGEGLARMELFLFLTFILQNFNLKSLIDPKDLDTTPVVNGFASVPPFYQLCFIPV

Cytochrome P450 2D6 = Cytochrome P450 2D6 (Homo sapiens, UniProt P10635); assay: Inhibition of CYP2D6 in human liver microsomes using dextromethorphan as substrate incubated for 30 mins by LC-MS/MS analysis; format: ADME
Cytochrome P450 2D6, sequence (P10635 whole entry): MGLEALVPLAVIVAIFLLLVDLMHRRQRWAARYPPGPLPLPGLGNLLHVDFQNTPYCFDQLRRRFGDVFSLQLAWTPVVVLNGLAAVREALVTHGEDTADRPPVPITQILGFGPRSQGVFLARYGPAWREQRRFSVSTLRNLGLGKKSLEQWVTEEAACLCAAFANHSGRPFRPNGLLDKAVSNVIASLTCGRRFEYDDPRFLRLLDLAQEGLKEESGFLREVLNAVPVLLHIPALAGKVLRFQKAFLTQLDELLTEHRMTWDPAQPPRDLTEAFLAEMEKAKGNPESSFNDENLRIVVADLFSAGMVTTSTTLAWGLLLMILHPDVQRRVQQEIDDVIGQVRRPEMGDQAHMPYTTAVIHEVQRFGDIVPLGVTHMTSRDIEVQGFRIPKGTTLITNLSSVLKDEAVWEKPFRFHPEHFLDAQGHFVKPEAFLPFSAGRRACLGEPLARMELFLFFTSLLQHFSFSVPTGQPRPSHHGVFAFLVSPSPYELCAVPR

[20] = Elimination rate constant Sprague-Dawley rat at 1 mg/kg, iv up to 24 hrs by LC-MS/MS analysis; format: ADME, organism-based; conditions: in vivo

Cytochrome P450 3A4, sequence (P08684 whole entry): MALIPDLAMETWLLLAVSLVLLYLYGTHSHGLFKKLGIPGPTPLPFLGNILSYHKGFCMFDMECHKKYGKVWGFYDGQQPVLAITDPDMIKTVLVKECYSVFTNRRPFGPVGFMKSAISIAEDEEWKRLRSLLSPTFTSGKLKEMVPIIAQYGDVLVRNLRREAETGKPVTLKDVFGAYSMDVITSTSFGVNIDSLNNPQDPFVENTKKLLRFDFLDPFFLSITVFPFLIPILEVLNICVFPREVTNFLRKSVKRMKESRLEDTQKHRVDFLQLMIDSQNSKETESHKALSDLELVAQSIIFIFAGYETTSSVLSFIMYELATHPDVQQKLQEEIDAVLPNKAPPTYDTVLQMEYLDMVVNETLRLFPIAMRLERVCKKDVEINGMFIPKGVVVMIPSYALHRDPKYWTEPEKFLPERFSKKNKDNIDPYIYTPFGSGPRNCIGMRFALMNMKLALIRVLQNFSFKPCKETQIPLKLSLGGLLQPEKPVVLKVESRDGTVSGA

C[C@H]1CO[C@@H]2Cn3cc(C(=O)NCc4ccc(F)nc4F)c(=O)c(O)c3C(=O)N12
IC50 (Cytochrome P450 3A4): > 10 µM
remaining at 24 h, 1 µM [1]: 94.5%
fraction unbound at 4 h, 1 µM [2]: 0.001
concentration at 8 h [3]: 8620 ng/mL
CC50 [4]: > 0.01 µM
concentration at 24 h [5]: 5430 ng/mL
remaining at 24 h, 1 µM [6]: 83.8%
remaining at 24 h, 1 µM [7]: 95%
solubility thermodynamic at 24 h [8]: 232 µg/mL (≈ 571 µM)
Tmax [9]: 3 h
fraction unbound at 4 h, 1 µM [10]: 0.011
IC50 (Cytochrome P450 2C9): > 10 µM
IC50 (Cytochrome P450 1A2): > 10 µM
EC50 [11]: 0.00024 µM
remaining at 24 h, 1 µM [12]: 84%
concentration at 24 h [13]: 4440 ng/mL
bioavailability [14]: 17.5%
solubility thermodynamic at 24 h [15]: 269 µg/mL (≈ 662 µM)
Tmax [16]: 4.8 min
Ratio CC50/EC50 [17]: > 41.7
concentration at 8 h [18]: 7910 ng/mL
IC50 (Cytochrome P450 2C8): > 10 µM
k el at 24 h [19]: 1.11e-05 s⁻¹
IC50 (Cytochrome P450 2C19): > 10 µM
IC50 (Cytochrome P450 2D6): > 10 µM
k el at 24 h [20]: 8.33e-06 s⁻¹
